Results on one molecule are retold here after patent US20190000976A1, “Purgative Composition” (CTC BIO, INC., priority 2016, published 2019).

Structures are written as SMILES.

Data set [1] in a line: Stability of sodium picosulfate in solution alone, with polyethylene glycol 4000 or with sorbitol (content by HPLC, British Pharmacopoeia). Type of data set: physicochemical. The procedure:
The solution was stored at room temperature, in accelerated condition (40° C., 75%RH), and stress condition (60° C., 75%RH).

Data set [2] can be described thus: Stability of sodium picosulfate in polyethylene glycol 3350 / sorbitol solution with sodium hydrogencarbonate or sodium citrate, 3 weeks (content by HPLC). It is filed as physicochemical. To be noted: by comprising sodium hydrogencarbonate or sodium citrate. The procedure:
The solution was stored at room temperature or stress condition (60° C., 75%RH) for 3 weeks. The content of sodium picosulfate was evaluated. The content of sodium picosulfate was determined by ‘Sodium picosulfate powder for oral solution’ test method of British Pharmacopoeia using high performance liquid chromatography.

As for `O=S(=O)(O)Oc1ccc(C(c2ccc(OS(=O)(=O)O)cc2)c2ccccn2)cc1` [sodium picosulfate], the “Content (%) of sodium picosulfate, After 1 week Accelerated condition” value in data set [1] (1 week, accelerated condition (40° C., 75%RH)) is recorded as 102.2%. Further, in data set [1] (1 week, room temperature), the “Content (%) of sodium picosulfate, After 1 week Room temp.” value came to 102.2%. The “Content (%) of sodium picosulfate, After 1 week Stress condition” value in data set [1] (1 week, stress condition (60° C., 75%RH)) worked out at 102.4%. For the same molecule, in data set [1] (2 weeks, room temperature), the “Content (%) of sodium picosulfate, After 2 weeks Room temp.” value was determined as 102.4%. Moreover, in data set [1] (2 weeks, stress condition (60° C., 75%RH)), the “Content (%) of sodium picosulfate, After 2 weeks Stress condition” value came to 102.5%. Further, the “Content (%) of sodium picosulfate, Initial” value in data set [1] (Initial, 300 ml solution) came out at 102.4%. Further, the “Stability of sodium picosulfate (in words)” value in data set [1] (when mixed with polyethylene glycol) is listed as “very unstable”. Further, the “Instability of sodium picosulfate caused by mixing with polyethylene glycol (in words)” value in data set [2] is “improved dramatically”.
